In test [1] the test system is Mycobacterium tuberculosis variant bovis. As to the kind of experiment: Antimycobacterial activity against Mycobacterium bovis BCG ATCC 35734 up to 4 times MIC90 after 8 weeks. The format is functional.
Test [2] has the same test system. As to the kind of experiment: Antimycobacterial activity against Mycobacterium bovis BCG ATCC 35734 in presence of menaquinone. The class given is functional.
Test [3] shares this test system. In words: Antimycobacterial activity against Mycobacterium bovis BCG ATCC 35734 after 5 days by broth dilution method. The format is functional. Conditions: ATCC 35734, 120 h.
For test [4] the test system is unchanged. In words: Antimycobacterial activity against Mycobacterium bovis BCG ATCC 35734 using middlebrook 7H9 broth media after 5 days by broth dilution method. The format is functional. Conditions: ATCC 35734, 120 h. Background: In broth dilution the organism is exposed to a series of concentrations in liquid medium.
The test system is the same in test [5]. In words: Antimycobacterial activity against Mycobacterium bovis BCG ATCC 35734 using middlebrook 7H9 broth media supplemented with 10 % fetal bovine serum after 5 days by broth dilution method. The class given is functional. Conditions: ATCC 35734, 120 h.
The test system is the same in test [6]. As to the kind of experiment: Antimycobacterial activity against Mycobacterium bovis BCG ATCC 35734 assessed as membrane depolarization at 12 uM by DiOC2-based fluorescence assay. The class given is functional. Conditions: TDE = time-dependent effect.
For test [7] the test system is unchanged. As to the kind of experiment: Antimycobacterial activity against Mycobacterium bovis BCG ATCC 35734 assessed as increase in permeabilized cells at 12 uM by propidium iodide-staining based FACS analysis. Conditions: TDE = time-dependent effect. The class given is functional, cell-based. In general terms: A flow cytometer gives signals particle by particle.

For test [8] the test system is unchanged. In words: Bactericidal activity against Mycobacterium bovis BCG ATCC 35734 assessed as reduction in colony forming units measured on day 4 by time kill assay. The format is functional. Conditions: ATCC 35734, 96 h, read-out: MBC99.9.
Test [9] has the same test system. As to the kind of experiment: Antimycobacterial activity against Mycobacterium bovis BCG ATCC 35734 assessed as membrane depolarization at 1.6 uM measured daily over 5 days of compound treatment by DiOC2-based fluorescence assay. The format is functional.
Test [10] shares this test system. In words: Antimycobacterial activity against Mycobacterium bovis BCG ATCC 35734 assessed as increase in permeabilized cells at 1.6 uM measured daily over 5 days of compound treatment by propidium iodide-staining based FACS analysis. The class given is functional, cell-based.
The test system is the same in test [11]. As to the kind of experiment: Bactericidal activity against Mycobacterium bovis BCG ATCC 35734 assessed as reduction in colony forming units at 1.6 uM measured daily over 5 days of compound treatment by time kill assay. The format is functional.
Test [12] shares this test system. In words: Bactericidal activity against Mycobacterium bovis BCG ATCC 35734 assessed as 1000 fold kill under low-oxygen tension conditions by time kill assay. The format is functional, Mycobacterium tuberculosis variant bovis BCG.
Test [13] has the same test system. As to the kind of experiment: Induction of cell envelope stress in iniBAC expressing Mycobacterium bovis BCG ATCC 35734 co-expressing RFP assessed as increase in iniBAC promoter gene activity at compound MIC50 after 24 hrs by fluorescence assay relative to control. The format is functional, Mycobacterium tuberculosis variant bovis BCG.
The test system is the same in test [14]. In words: Induction of cell envelope stress in clgR-pspA expressing Mycobacterium bovis BCG ATCC 35734 co-expressing RFP assessed as increase in clgR promoter gene activity at compound MIC50 after 24 hrs by fluorescence assay relative to control. The class given is functional, Mycobacterium tuberculosis variant bovis BCG.
The test system is the same in test [15]. As to the kind of experiment: Antimycobacterial activity against Mycobacterium bovis BCG ATCC 35734 assessed as growth inhibition at 10 uM after 5 days relative to control. The format is functional. Conditions: ATCC 35734, 120 h, read-out: GI.
Test [16] has the same test system. In words: Antimycobacterial activity against Mycobacterium bovis BCG ATCC 35734 assessed as membrane depolarization at 200 uM by DiOC2-based fluorescence assay relative to control. The format is functional, Mycobacterium tuberculosis variant bovis BCG.

Usually MIC50 stands for the lowest concentration that inhibits either 50% of growth or 50% of the strains tested, depending on the study. The low end stands for higher susceptibility, the high end for lower susceptibility. For orientation: MIC90 means the lowest concentration that inhibits either 90% of growth or 90% of the strains tested, depending on the study. Lower therefore signals higher susceptibility.

Converted amounts (≈) assume the structure as drawn. The source made the active and inactive calls. The rule behind the calls is not given here.

For `NNC(=O)c1ccncc1`, the result in test [1] was inactive.

With `CCCCCCCCn1cc(CN2CCCCCC2)c2c(F)cccc21`, the result in test [2], in test [9], in [10], in test [11] and in test [1] was Active. Besides, the MIC50 in [3] came to 2 µM (≈ 0.717 µg/mL); in [4], 5 µM (≈ 1.79 µg/mL); in [5] it was 4.5 µM (≈ 1.61 µg/mL). The MIC90 in test [3] stood at 6 µM (≈ 2.15 µg/mL). The Activity entry in test [6] and in [7] was “Tde” each time. The MBC in test [8] worked out at 12 µM (≈ 4.3 µg/mL). In [12], the WCC99.9 fell in the range of 12 to 24 µM. For the same molecule, the “fold change (FC)” value in [13] is 10; in test [14], 5. The inhibition of growth at 10 µM in test [15] was determined as 99%.

Regarding `N#CC(C#N)=NNc1cccc(Cl)c1` [CARBONYL CYANIDE M-CHLOROPHENYLHYDRAZONE], the Activity in [16] came to 90%.

`CCCCCCCCn1cc(CN2CCC3(CC2)OCCO3)c2ccc(OC)cc21`: the MIC50 was 2 µM (≈ 0.829 µg/mL) in [3], 2.1 µM (≈ 0.871 µg/mL) in [4] and 2.5 µM (≈ 1.04 µg/mL) in test [5]. This molecule returned an MIC90 in test [3] of 4 µM (≈ 1.66 µg/mL). In test [15], the inhibition of growth at 10 µM stood at 99%.

In test [3], `CCCCCCCCn1cc(CN2CCN(C)CC2)c2cc(F)ccc21` came in with an MIC50 of 13 µM (≈ 4.67 µg/mL) and an MIC90 of 36 µM (≈ 12.9 µg/mL). Further, the inhibition of growth at 10 µM in [15] was 99%.

For `CCCCCCCCn1cc(CN2CCC3(CC2)OCCO3)c2cc(OC)ccc21`, in [3], the MIC50 was determined as 5 µM (≈ 2.07 µg/mL) and the MIC90 was 9 µM (≈ 3.73 µg/mL). The inhibition of growth at 10 µM in test [15] was 99%.

As for `CC(C)=CCC/C(C)=C/Cn1cc(CN2CCCCC2)c2ccccc21`, in [3], the MIC50 came out at 3 µM (≈ 1.05 µg/mL) and the MIC90 was 6 µM (≈ 2.1 µg/mL). Moreover, in [15], the inhibition of growth at 10 µM turned out to be 99%.

`CCCCCCCCn1cc(CN2CCN(CC)CC2)c2cc(F)ccc21`: in [3], the MIC50 is 13 µM (≈ 4.86 µg/mL) and the MIC90 was found to be 32 µM (≈ 12 µg/mL). In addition, in test [15], the inhibition of growth at 10 µM was 99%.

As to `CCCCCCCCCCCCn1cc(CN2CCCCCC2)c2c(F)cccc21`, in [3], the MIC50 was 7 µM (≈ 2.9 µg/mL) and the MIC90 worked out at 10 µM (≈ 4.15 µg/mL). The inhibition of growth at 10 µM in test [15] was 99%.

In test [3], `CCn1cc(CN2CCCCCC2)c2c(F)cccc21` came in with an MIC50 greater than 50 µM and an MIC90 greater than 50 µM. The inhibition of growth at 10 µM in [15] was 99%.

As to `CC(C)=CCC/C(C)=C/Cn1cc(CN2CCC3(CC2)OCCO3)c2cc(F)ccc21`, in [3], the MIC50 was determined as 5 µM (≈ 2.13 µg/mL) and the MIC90 amounted to 9 µM (≈ 3.84 µg/mL). Besides, the inhibition of growth at 10 µM in test [15] turned out to be 99%.

For the molecule `CCCCCCCCn1cc(CNC23CC4CC(CC(C4)C2)C3)c2cccc(F)c21`, in [3], the MIC50 is 3 µM (≈ 1.23 µg/mL) and the MIC90 is 5 µM (≈ 2.05 µg/mL). Moreover, in [15], the inhibition of growth at 10 µM is 99%.

In test [3], `CC(C)=CCC/C(C)=C/Cn1cc(CN(C)C)c2cc(F)ccc21` displayed an MIC50 of 14.5 µM (≈ 4.76 µg/mL) and an MIC90 of 25 µM (≈ 8.21 µg/mL). Also, the inhibition of growth at 10 µM in test [15] was 99%.

In the case of `Fc1ccc2c(c1)c(CN1CCCCC1)cn2CCC1CCCCC1`, in test [3], the MIC50 amounted to 17 µM (≈ 5.82 µg/mL) and the MIC90 was 27 µM (≈ 9.25 µg/mL). Besides, the inhibition of growth at 10 µM in test [15] came to 99%.

In [3], `CCCCCCCCn1cc(CN2CCCCCC2)c2ccc(F)cc21` yielded an MIC50 of 4 µM (≈ 1.43 µg/mL) and an MIC90 of 6 µM (≈ 2.15 µg/mL). Further, the inhibition of growth at 10 µM in test [15] came out at 99%.

In [3], `CCCCCCCCn1cc(CNC23CC4CC(CC(C4)C2)C3)c2cccc(OC)c21` had an MIC50 of 3 µM (≈ 1.27 µg/mL) and an MIC90 of 8 µM (≈ 3.38 µg/mL). In addition, the inhibition of growth at 10 µM in [15] stood at 99%.

As for `CCCCCCCCn1cc(CN2CCCCC2)c2ccc(F)cc21`, in [3], the MIC50 came out at 6 µM (≈ 2.07 µg/mL) and the MIC90 is 12 µM (≈ 4.13 µg/mL). Further, the inhibition of growth at 10 µM in test [15] came out at 99%.

Take `CCCCCCCCn1cc(CN2CCC(C)CC2)c2c(F)cccc21`: in test [3], the MIC50 is 2 µM (≈ 0.717 µg/mL) and the MIC90 was found to be 5 µM (≈ 1.79 µg/mL). Further, the inhibition of growth at 10 µM in test [15] was 99%.

In test [3], `CCCCCCCCn1cc(CNC23CC4CC(CC(C4)C2)C3)c2c(OC)cccc21` had an MIC50 of 6 µM (≈ 2.54 µg/mL) and an MIC90 of 12 µM (≈ 5.07 µg/mL). For the same molecule, the inhibition of growth at 10 µM in test [15] came to 99%.

In test [3], `Fc1ccc2c(c1)c(CN1CCCCC1)cn2CCCOc1ccccc1` came in with an MIC50 of 19 µM (≈ 6.96 µg/mL) and an MIC90 of 50 µM (≈ 18.3 µg/mL). Besides, the inhibition of growth at 10 µM in [15] stood at 99%.

In the case of `CCCCCCCCn1cc(CN2CCCCC2)c2cc(Br)ccc21`, in test [3], the MIC50 came to 5 µM (≈ 2.03 µg/mL) and the MIC90 turned out to be 9 µM (≈ 3.65 µg/mL). Besides, in test [15], the inhibition of growth at 10 µM was determined as 99%.

As for `CCCCNC(=O)Cn1cc(CN2CCCCC2)c2cc(F)ccc21`, in test [3], the MIC50 is greater than 50 µM and the MIC90 is greater than 50 µM. Moreover, in test [15], the inhibition of growth at 10 µM amounted to 99%.

In test [3], `CC(C)=CCC/C(C)=C/Cn1cc(CN2CCCCCC2)c2cc(F)ccc21` returned an MIC50 of 4 µM (≈ 1.53 µg/mL) and an MIC90 of 7 µM (≈ 2.68 µg/mL). For the same molecule, in [15], the inhibition of growth at 10 µM worked out at 99%.

In test [3], `CCCCCCCCn1cc(CN2CCSCC2)c2cc(F)ccc21` displayed an MIC50 of 11 µM (≈ 3.99 µg/mL) and an MIC90 greater than 50 µM. The inhibition of growth at 10 µM in test [15] was 99%.

In the case of `CCCCCCCCn1cc(CN2CCC3(CC2)OCCO3)c2cccc(F)c21`, in test [3], the MIC50 is 3 µM (≈ 1.21 µg/mL) and the MIC90 was determined as 7 µM (≈ 2.82 µg/mL). For the same molecule, the inhibition of growth at 10 µM in test [15] came out at 99%.

In the case of `CC(C)=CCC/C(C)=C/Cn1ccc2cc(F)ccc21`, in test [3], the MIC50 was greater than 50 µM and the MIC90 is greater than 50 µM. For the same molecule, the inhibition of growth at 10 µM in test [15] stood at 99%.

On to `CCN(CC)Cc1cn(C/C=C(\C)CCC=C(C)C)c2ccc(F)cc12`, for which, in test [3], the MIC50 worked out at 13 µM (≈ 4.63 µg/mL) and the MIC90 was determined as 24 µM (≈ 8.56 µg/mL). The inhibition of growth at 10 µM in [15] worked out at 99%.

In [3], `CCCCCCCCn1cc(CN2CCC3(CC2)OCCO3)c2c(OC)cccc21` came in with an MIC50 of 6 µM (≈ 2.49 µg/mL) and an MIC90 of 9 µM (≈ 3.73 µg/mL). Further, the inhibition of growth at 10 µM in test [15] is 99%.

For the origin of these results see ChEMBL document CHEMBL4007488, “Amphiphilic Indole Derivatives as Antimycobacterial Agents: Structure-Activity Relationships and Membrane Targeting Properties” (J Med Chem, 2017).
